Converted amounts (≈) assume the structure as drawn.
Tests used:
Format in all cases: cell-based
[1] = tested on: Staphylococcus aureus ATCC 29213 (MSSA); test: Broth microdilution MIC, S. aureus ATCC 29213 (MSSA); conditions: broth microdilution, 37° C., 20 hours, read-out: MIC S. aureus ATCC 29213 (MSSA)
From the text: (§1) Bacteria tested are Staphylococcus aureus NRS384 (a methicillin-resistant Staphylococcus aureus, MRSA), Staphylococcus aureus ATCC 29213 (a methicillin-sensitive Staphylococcus aureus, MSSA), Streptococcus pneumoniae ATCC 49619, Enterococcus faecalis ATCC 29212, Enterococcus faecium ATCC 700221 (a vancomycin-resistant enterococcus, VRE), Bacillus subtilis ATCC 6633, and Escherichia coli ATCC 25922.
(§2) Staphylococcus aureus NRS384 was obtained from NARSA (Network on Antimicrobial Resistance in Staphylococcus aureus, now the strain collection is in BEI resources). Other bacterial isolates were from ATCC (The American Type Culture Collection). Upon receiving the bacteria samples from aforementioned institutes, the bacteria were cultured according to the manuals provided by the suppliers. The bacteria were stored in 25% glycerol (final concentration) at −80° C.
(§3) On the day of testing, the compounds were dissolved in pure DMSO (Sigma 276855-1L) to […] as stock. In a v-bottom 96-well plate (Axygen-wipp02280), 20 μl DMSO was added into well 2 to well 12 by manual pipetting. Into well 1, 12.8 μL of compound DMSO stock (20 mg/ml) was added and mixed with 27.2 μl DMSO by pipetting. Two fold serial dilutions were performed by transferring and mixing 20 μl of solution from well 1 to well 2, then well 2 to well 3 and so forth until well 11. The well 12 was loaded with 20 μl DMSO without compounds. This was drug ‘mother plate’. From well 1 to well 12, the drug concentrations in the mother plate were […] in DMSO. A multi-pipette was used to perform the serial dilutions. The concentration may be adjusted according to the potency of the compounds. An Echo® Acoustic liquid handling system may be used to replace manual pipetting to make the daughter plates.
(§4) One day prior to the day of MIC testing, bacterial strains were streaked out from −80° C. glycerol stocks onto MHA plates and incubated at 37° C. for 20 hours. Streptococcus pneumoniae was streaked on blood agar and incubated at 37° C. in 5% CO2. The single colonies were picked by using an inoculation loop (Greiner-731175) and suspended into 5 ml sterile saline. The turbidity of the suspension was adjusted to 0.10 (Siemens MicroScan turbidity meter), equal to ˜1.0×10^8 cfu/ml. The bacterial suspension was diluted 200× in corresponding test medium (Table 1). This was used to inoculate daughter plates.
(§5) For preparing u-bottom 96-well ‘daughter plates’ (Costar 3788), an aliquot of 1 μl solution from mother plate was then replicating transferred into the daughter plate using a multi-pipette.
(§6) An aliquot of 99 μl of the bacterial suspension was inoculated into each well of the daughter plates using a multi-pipette. Each well contained ˜5.0×10^5 cfu/ml bacteria, 1% DMSO and serially diluted compounds at 64, 32, 16, 8, 4, 2, 1, 0.5, 0.25, 0.125, 0.0625 and 0 μg/ml from well 1 to well 12 respectively, in 100 μl corresponding test medium.
(§7) The plates were incubated in ambient atmosphere and in a 37° C. incubator for 20 hours.
(§8) Compounds of the present invention were tested for antibacterial activity against a variety of bacterial organism including Bacillus subtilis, Staphylococcus aureus, Enterococcus faecalis, Enterococcus faecium, Streptococcus pneumoniae and Escherichia coli. […] Compounds described in Examples 2, 44, 53, 56, 90, 134, 212, 213, 214, 218, 222, 304, 305, and 307 had MIC of ≤1 μg/ml against S. aureus NRS 384 (MRSA) (μg/ml) and E. faecium ATCC 700221 (VRE) (μg/ml).

[2] = tested on: Escherichia coli ATCC 25922; test: Broth microdilution MIC, E. coli ATCC 25922 (MHIIB w & w/o 4 mM EDTA); conditions: broth microdilution, 37° C., 20 hours; for MIC: Escherichia coli, ATCC25922, without EDTA, read-out: MIC E. coli ATCC 25922; for MIC E. coli ATCC 25922 + 4 mM EDTA: with 4 mM EDTA
From the text: as §1, §2, §3, §4, §5, §6, §7, §8

[3] = tested on: Enterococcus faecalis ATCC 29212; test: Broth microdilution MIC, E. faecalis ATCC 29212; conditions: ATCC29212, broth microdilution, 37° C., 20 hours, read-out: MIC E. faecalis ATCC 29212
From the text: as §1, §2, §3, §4, §5, §6, §7, §8

[4] = tested on: Staphylococcus aureus NRS384 (MRSA); test: Broth microdilution MIC, S. aureus NRS384 (MRSA); conditions: Staphylococcus aureus; broth microdilution, 37° C., 20 hours; read-out: MIC NRS 384 (MRSA)
From the text: as §1, §2, §3, §4, §5, §6, §7, §8

[5] = tested on: Enterococcus faecium ATCC 700221 (VRE); test: Broth microdilution MIC, E. faecium ATCC 700221 (VRE); conditions: Enterococcus faecium; broth microdilution, 37° C., 20 hours; read-out: MIC E. faecium ATCC 700221 (VRE)
From the text: as §1, §2, §3, §4, §5, §6, §7, §8

[6] = tested on: Bacillus subtilis ATCC 6633; test: Broth microdilution MIC, B. subtilis ATCC 6633; conditions: ATCC6633, broth microdilution, 37° C., 20 hours, read-out: MIC B. subtilis ATCC 6633
From the text: as §1, §2, §3, §4, §5, §6, §7, §8

[7] = tested on: Streptococcus pneumoniae ATCC 49619; test: Broth microdilution MIC, S. pneumoniae ATCC 49619; conditions: ATCC49619, broth microdilution, 37° C., 20 hours, read-out: MIC S. pneumoniae ATCC 49619
From the text: as §1, §2, §3, §4, §5, §6, §7, §8

| MIC [1] [µg/mL] | MIC [2] [µg/mL] | MIC E. coli ATCC 25922 + 4 mM EDTA [2] | MIC [3] [µg/mL] | MIC [4] [µg/mL] | MIC [5] [µg/mL] | MIC [6] [µg/mL] | MIC [7] [µg/mL] | Compound |
| --- | --- | --- | --- | --- | --- | --- | --- | --- |
| > 64 | > 64 | 64 µg/mL | > 64 | > 64 | 16 (≈ 49.4 µM) | 64 (≈ 197 µM) | 64 (≈ 197 µM) | Cn1ncc2nc(NCc3ccc(Cl)cc3Cl)[nH]c(=O)c21 [Compound 28, 5-((2,4-Dichlorobenzyl)amino)-1-methyl-1H-pyrazolo[4,3-d]pyrimidin-7(6H)-one] |
| > 64 | > 64 | >64 µg/mL | > 64 | > 64 | > 64 | > 64 | > 64 | Cn1ncc2nc(NCc3cccc(Cl)c3Cl)[nH]c(=O)c21 [Compound 29, 5-((2,3-Dichlorobenzyl)amino)-1-methyl-1H-pyrazolo[4,3-d]pyrimidin-7(6H)-one] |
| > 64 | > 64 | >64 µg/mL | > 64 | > 64 | > 64 | > 64 | > 64 | Cn1ncc2nc(NCc3c(Cl)cccc3Cl)[nH]c(=O)c21 [Compound 30, 5-((2,6-Dichlorobenzyl)amino)-1-methyl-1H-pyrazolo[4,3-d]pyrimidin-7(6H)-one] |
| 4 (≈ 13.2 µM) | > 64 | 16 µg/mL | 8 (≈ 26.3 µM) | 4 (≈ 13.2 µM) | 4 (≈ 13.2 µM) | 2 (≈ 6.58 µM) | 8 (≈ 26.3 µM) | Cc1ccc(CNc2nc3cnn(C)c3c(=O)[nH]2)cc1Cl [Compound 31, 5-((3-Chloro-4-methylbenzyl)amino)-1-methyl-1H-pyrazolo[4,3-d]pyrimidin-7(6H)-one] |
| > 64 | > 64 | >64 µg/mL | > 64 | > 64 | > 64 | > 64 | > 64 | COc1ccc(CNc2nc3cnn(C)c3c(=O)[nH]2)cc1OC [Compound 32, 5-((3,4-Dimethoxybenzyl)amino)-1-methyl-1H-pyrazolo[4,3-d]pyrimidin-7(6H)-one] |
| 16 (≈ 56.5 µM) | > 64 | >64 µg/mL | 32 (≈ 113 µM) | 16 (≈ 56.5 µM) | 16 (≈ 56.5 µM) | 8 (≈ 28.2 µM) | 16 (≈ 56.5 µM) | Cc1ccc(CNc2nc3cnn(C)c3c(=O)[nH]2)cc1C [Compound 33, 5-((3,4-Dimethylbenzyl)amino)-1-methyl-1H-pyrazolo[4,3-d]pyrimidin-7(6H)-one] |
| > 64 | > 64 | >64 µg/mL | > 64 | > 64 | > 64 | > 64 | 64 (≈ 200 µM) | COc1cc(CNc2nc3cnn(C)c3c(=O)[nH]2)ccc1Cl [Compound 34, 5-((4-Chloro-3-methoxybenzyl)amino)-1-methyl-1H-pyrazolo[4,3-d]pyrimidin-7(6H)-one] |
| 4 (≈ 13.2 µM) | > 64 | >64 µg/mL | 8 (≈ 26.3 µM) | 2 (≈ 6.58 µM) | 4 (≈ 13.2 µM) | 2 (≈ 6.58 µM) | 4 (≈ 13.2 µM) | Cc1cc(CNc2nc3cnn(C)c3c(=O)[nH]2)ccc1Cl [Compound 35, 5-((4-Chloro-3-methylbenzyl)amino)-1-methyl-1H-pyrazolo[4,3-d]pyrimidin-7(6H)-one] |
| > 64 | > 64 | >64 µg/mL | > 64 | > 64 | > 64 | > 64 | > 64 | Cn1ncc2nc(NCc3cc(Cl)c(Cl)cn3)[nH]c(=O)c21.O=C(O)C(F)(F)F [Compound 36, 5-(((4,5-Dichloropyridin-2-yl)methyl)amino)-1-methyl-1H-pyrazolo[4,3-d]pyrimidin-7(6H)-one-2,2,2-trifluoroacetate] |
| > 64 | > 64 | >64 µg/mL | > 64 | > 64 | > 64 | > 64 | > 64 | Cn1ncc2nc(NCc3nc(Cl)c(Cl)[nH]3)[nH]c(=O)c21 [Compound 37, 5-(((4,5-Dichloro-1H-imidazol-2-yl)methyl)amino)-1-methyl-1H-pyrazolo[4,3-d]pyrimidin-7(6H)-one] |
| > 64 | > 64 | >64 µg/mL | > 64 | > 64 | > 64 | > 64 | > 64 | CCc1[nH]c(CNc2nc3cnn(C)c3c(=O)[nH]2)nc1Cl.Cl [Compound 38, 5-(((4-Chloro-5-ethyl-1H-imidazol-2-yl)methyl)amino)-1-methyl-1H-pyrazolo[4,3-d]pyrimidin-7(6H)-one hydrochloride] |
| > 64 | > 64 | >64 µg/mL | > 64 | > 64 | > 64 | > 64 | > 64 | Cn1ncc2nc(Nc3ccc4c(c3)COC4)[nH]c(=O)c21 [Compound 39, 5-((1,3-Dihydroisobenzofuran-5-yl)amino)-1-methyl-1H-pyrazolo[4,3-d]pyrimidin-7(6H)-one] |
| > 64 | > 64 | >64 µg/mL | > 64 | > 64 | > 64 | > 64 | > 64 | COC(=O)c1nn(C)c2c(=O)[nH]c(NCc3ccc(Cl)c(Cl)c3)nc12 [Compound 40, Methyl 5-((3,4-dichlorobenzyl)amino)-1-methyl-7-oxo-6,7-dihydro-1H-pyrazolo[4,3-d]pyrimidine-3-carboxylate] |
| > 64 | > 64 | >64. ug/ml | > 64 | > 64 | > 64 | > 64 | > 64 | Cn1nc(C(=O)O)c2nc(NCc3ccc(Cl)c(Cl)c3)[nH]c(=O)c21 [Compound 41, 5-((3,4-dichlorobenzyl)amino)-1-methyl-7-oxo-6,7-dihydro-1H-pyrazolo[4,3-d]pyrimidine-3-carboxylic acid] |
| > 64 | > 64 | >64 µg/mL | > 64 | > 64 | > 64 | > 64 | > 64 | CNC(=O)c1nn(C)c2c(=O)[nH]c(NCc3ccc(Cl)c(Cl)c3)nc12 [Compound 42, 5-((3,4-dichlorobenzyl)amino)-N, 1-dimethyl-7-oxo-6,7-dihydro-1H-pyrazolo[4,3-d]pyrimidine-3-carboxamide] |
